Measurements from US20060258647A1, “Treatment of maladaptive substance use with cholecystokinin (CCK) antagonists” (The Regents of the University of California, priority 2005, published 2006).
Entries after “also recorded” stand apart in the source; their conditions may differ.

Tests used:
Sprague-Dawley rats [1] = assay: Expression of morphine conditioned place preference (CPP) after systemic administration; type: in vivo, rat; conditions: 1 mg/kg systemic (i.p.)
Experimental: (§1) 68 male Sprague-Dawley rats (Charles River, Wilmington, Mass.) weighing 275-300 grams at the onset of the study were individually housed in a temperature controlled environment (70° F.) and kept on a 12 hour light/dark cycle. Rat chow and water were available ad libitum. Animals were tested at the same time during their light cycle each day. All experimental protocols were approved by the Institutional Animal Care and Use Committee and were conducted in accordance with the Guide for the Care and Use of Laboratory Animals (N1H). 22 rats were used for systemic injections and the remaining rats were cannulated for NAcc microinjections.
Animals were trained in 3 chamber place conditioning boxes (Med Associates) in which 2 chambers (28×21×21 cm) that differed in color (one black, one white), light level, and texture were separated by a neutral gray chamber (12×21×21). During the initial baseline period, animals were placed in the central chamber and were allowed to freely explore all 3 chambers for a period of 30 minutes. Beam breaks, entries, and time spent in each chamber were automatically recorded using infrared beams. […] During each conditioning session, animals were injected with either morphine or saline and were then immediately confined to one of the two larger chambers for 60 minutes. Rats received 2 conditioning sessions per day for a period of 4 days. Conditioning sessions were separated by a minimum period of 5 hours. Animals were tested for expression of conditioned place preference 1 day after the final conditioning session. Drug side and order were counter-balanced. […] Systemic L-365, 260 was administered 30 minutes before the onset of CPP testing. […]
*Difference scores were calculated by subtracting the time spent in the saline paired chamber from the time spent in the morphine paired chamber during a test session. […]

[2] = Jackson et al., 1994; cited from earlier work
Sprague-Dawley rats [3] = assay: Expression of morphine CPP after microinjection into anterior or posterior nucleus accumbens (NAcc); type: in vivo, rat; conditions: CCK-4 10 ng, CCK-8 100 ng (legend 10 ng), raclopride 4 μg; for expression of morphine CPP, microinjected independently into anterior NAcc: L-365, 260 1 ng (p=0.002), SCH-23390 2 μg; for expression of morphine CPP, microinjected independently into anterior NAcc / expression of morphine CPP, microinjected independently into posterior NAcc: lorglumide 15 ng; for expression of morphine CPP, microinjected independently into posterior NAcc: L-365, 260 1 ng (p=0.021), SCH-23390 2 μg (p=0.049); for effect of co-injection on the L-365, 260 effect (attenuation) on morphine CPP, anterior NAcc: co-injected with L-365, 260 into anterior NAcc; for effect of co-injection on the L-365, 260 effect (potentiation) on morphine CPP, posterior NAcc: co-injected with L-365, 260 into posterior NAcc
Experimental: as §1
Animals were anesthetized with a ketamine-xylazine mixture and maintained on isoflurane (0.5 liter/min) as needed for the duration of surgery. Animals were placed in a stereotaxic frame and were implanted with bilateral 26-gauge stainless steel chronic guide cannulae (Plastics One, Roanoke, V A) into either the Anterior (AP, 2.2; ML, ±1.1; DV, −5.5) or Posterior (AP, 1.2; ML, ±1.1; DV, −5.5) NAcc. Cannulae were secured to the skull with dental cement. At the end of the surgical procedure, animals were treated with penicillin and topical antibiotics. A stainless steel dummy cannula (Plastics One) was inserted into each guide cannula and remained in place when the guide cannulae were not in use. Animals were allowed a 1-week recovery period prior to behavioral testing.
Animals were trained in 3 chamber place conditioning boxes (Med Associates) in which 2 chambers (28×21×21 cm) that differed in color (one black, one white), light level, and texture were separated by a neutral gray chamber (12×21×21). During the initial baseline period, animals were placed in the central chamber and were allowed to freely explore all 3 chambers for a period of 30 minutes. Beam breaks, entries, and time spent in each chamber were automatically recorded using infrared beams. […] During each conditioning session, animals were injected with either morphine or saline and were then immediately confined to one of the two larger chambers for 60 minutes. Rats received 2 conditioning sessions per day for a period of 4 days. Conditioning sessions were separated by a minimum period of 5 hours. Animals were tested for expression of conditioned place preference 1 day after the final conditioning session. Drug side and order were counter-balanced. […] Systemic L-365, 260 was administered 30 minutes before the onset of CPP testing.
All injection sites were based on the atlas of Paxinos and Watson (1998). Bilateral injections were made into either the Anterior (AP, 2.2; ML, +1.1; DV, −5.5) or Posterior (AP, 1.2; ML, ±1.1; DV, −5.5) NAcc. Each injection was made using a 1 μl syringe (Hamilton, Reno, Nev.) attached to 20 cm of PE 50 tubing connected to a 33-gauge injection cannula (Plastics One). Microinjections were given at a rate of 0.5 μl per minute using a syringe pump (kd Scientific, Holliston, M A). A volume of 0.5 μl was injected into each side of the NAcc. Injection cannulae extended 2 mm beyond guide cannulae and were left in place for 1 minute following microinjections to minimize the backflow of drug solution. 10 minutes after microinjection was completed, animals were placed into the central CPP chamber and allowed to explore for a period of 30 minutes. Animals received a maximum of four bilateral NAcc microinjections. The number of microinjections each animal received was determined by the persistence of place preference. […] Microinjection drug order was counterbalanced and began a minimum of one day following the test for expression of morphine CPP. Animals were tested for baseline expression of morphine CPP 24 hours following each microinjection to ensure the return to pre-injection baseline. At the conclusion of the experiment, animals were anesthetized with pentobarbital and perfused intracardially through the ascending aorta with 0.1M phosphate buffered saline followed by 10% formalin. […]

Rats = assay: Ethanol consumption / reinstatement with foot shock; type: in vivo, rat
Experimental: Rats (n=18) were administered 3 daily doses of systemic L-365 (1 mg/kg) prior to a one-hour ethanol (10%) access session. On the second day of L-365, 260 administration, animals were administered 0.8 mA of shock (0.5 seconds every 40 seconds for a period of 15 minutes) in ethanol access chambers directly prior to the onset of their one-hour access session. […] This was a randomized cross over design with each animal serving as its own control.
L-365, 260 had no effect on ethanol consumption when shock was administered during extinction (n=12). Animals were administered 3 daily doses of systemic L-365, 260 after ethanol consumption was extinguished. On the second day of L-365, 260 administration, animals were administered 0.8 mA of shock (0.5 seconds every 40 seconds for a period of 15 minutes) in the ethanol access chambers directly prior to the onset of their one-hour extinction session. This was a randomized cross over design with each animal serving as its own control.
L-365 had no effect on ethanol reinstatement when shock was administered on the first day of re-initiation of ethanol access (n=12). Animals were administered 3 daily doses of systemic L-365, 260 after ethanol consumption was extinguished. On the first day of L-365, 260 administration, animals were administered 0.8 mA of shock (0.5 seconds every 40 seconds for a period of 15 minutes) in the ethanol access chambers directly prior to the onset of their one-hour reinstatement session. This was a randomized cross over design with each animal serving as its own control.

humans = conditions: literature (Murphy et al., 1993 and others); cited from earlier work

With `Cc1cccc(NC(=O)N[C@@H]2N=C(c3ccccc3)c3ccccc3N(C)C2=O)c1` [L-365, 260, (3R-(+)-2,3-dihydro-1-methyl-2-oxo-5-phenyl-1H-1,4-benzodiazepin-3-yl)-N′-(3-methylphenyl)urea] the “expression of morphine CPP” value (Sprague-Dawley rats [1]; after acquisition of CPP, tested immediately after injection, p=0.006) was “attenuates”, the “expression of morphine CPP” value (Sprague-Dawley rats [1]; tested 24 hours after injection, p=0.0009) was “attenuates” and the “expression of morphine CPP” value (Sprague-Dawley rats [1]; tested 72 hours after injection, p=0.004) was “attenuates”. The “differentiation from saline in animal discrimination studies” value [2] was “cannot be differentiated from saline”, the “expression of morphine CPP, microinjected independently into anterior NAcc” value (Sprague-Dawley rats [3]) was “attenuates” and the “expression of morphine CPP, microinjected independently into posterior NAcc” value (Sprague-Dawley rats [3]) was “potentiates”. For the same compound, the “ethanol consumption on the two days following shock” value (Rats; 3 daily systemic doses 1 mg/kg before one-hour ethanol (10%) access, 0.8 mA shock on second day, n=18, vs saline controls) was “consumed significantly less ethanol than saline controls”, the “ethanol consumption when shock was administered during extinction” value (Rats; 3 daily systemic doses after ethanol consumption was extinguished, shock on second day, n=12) was “had no effect” and the “ethanol reinstatement when shock was administered on the first day of re-initiation of ethanol access” value (Rats; 3 daily systemic doses after extinction, shock on first day, n=12) was “had no effect”. The “side effects on administration to humans” value (humans) was “no significant side effects”.

With `CCCCCN(CCCCC)C(=O)C(CCC(=O)O)NC(=O)c1ccc(Cl)c(Cl)c1` (stereo not shown) [lorglumide] the “expression of morphine CPP, microinjected independently into anterior NAcc” value (Sprague-Dawley rats [3]) was “has no effect”, the “expression of morphine CPP, microinjected independently into anterior NAcc” value (Sprague-Dawley rats [3]; listed as Lorglumide) was “had no effect” and the “expression of morphine CPP, microinjected independently into posterior NAcc” value (Sprague-Dawley rats [3]) was “has no effect”. For the same compound, the “expression of morphine CPP, microinjected independently into posterior NAcc” value (Sprague-Dawley rats [3]; listed as Lorglumide) was “had no effect”.

For `CCN1CCC[C@H]1CNC(=O)c1c(O)c(Cl)cc(Cl)c1OC` [raclopride], the “expression of morphine CPP, microinjected independently into anterior NAcc” value (Sprague-Dawley rats [3]) was “has no effect”, the “expression of morphine CPP, microinjected independently into anterior NAcc” value (Sprague-Dawley rats [3]; listed as Raclopride) was “had no effect” and the “effect of co-injection on the L-365, 260 effect (attenuation) on morphine CPP, anterior NAcc” value (from here on “effect of co-injection … anterior NAcc”) (Sprague-Dawley rats [3]) was “reverse the effects of L-365, 260”. The “effect of co-injection on the L-365, 260 effect (potentiation) on morphine CPP, posterior NAcc” value (shortened to “effect of co-injection … posterior NAcc”) (Sprague-Dawley rats [3]) was “reverse the effects of L-365, 260”, the “expression of morphine CPP, microinjected independently into posterior NAcc” value (Sprague-Dawley rats [3]) was “has no effect” and the “expression of morphine CPP, microinjected independently into posterior NAcc” value (Sprague-Dawley rats [3]; listed as Raclopride) was “had no effect”.

In the case of CCK-4, the “expression of morphine CPP, microinjected independently into anterior NAcc” value (Sprague-Dawley rats [3]) is reported as “neither of which had an effect; also recorded: neither of which has an effect”, the “effect of co-injection … anterior NAcc” value (Sprague-Dawley rats [3]) is reported as “reversed” and the “effect of co-injection … posterior NAcc” value (Sprague-Dawley rats [3]) is reported as “reversed”. The “expression of morphine CPP, microinjected independently into posterior NAcc” value (Sprague-Dawley rats [3]) was “neither of which had an effect; also recorded: neither of which has an effect”.

For “CCK-8: cholecystokinin peptide, CCKB receptor ligand precursor, obtained from Research Biochemicals”, the “expression of morphine CPP, microinjected independently into anterior NAcc” value (Sprague-Dawley rats [3]) was “neither of which had an effect; also recorded: neither of which has an effect”, the “effect of co-injection … anterior NAcc” value (Sprague-Dawley rats [3]) was “reversed” and the “effect of co-injection … posterior NAcc” value (Sprague-Dawley rats [3]) was “reversed”. The “expression of morphine CPP, microinjected independently into posterior NAcc” value (Sprague-Dawley rats [3]) was “neither of which had an effect; also recorded: neither of which has an effect”.
